Measurements reported in ChEMBL document CHEMBL4813950, “Comparing the efficacy and selectivity of Ck2 inhibitors. A phosphoproteomics approach” (Eur J Med Chem, 2021).
The source made the active and inactive calls. The rule behind the calls is not given here.

Tests used:
[1] = molecular target: Enhancer of mRNA-decapping protein 4 (Mus musculus) (UniProt Q3UJB9); test: Inhibition of Edc4 in mouse C2C12 cells assessed as reduction in phospho-sites occupancy at 4 uM after 5 hrs by SILAC based LC-MS/MS analysis relative to control; assay type: cell-based
[2] = molecular target: tRNA (guanine(26)-N(2))-dimethyltransferase (Mus musculus) (UniProt Q3TX08); test: Inhibition of Trmt1 in mouse C2C12 cells assessed as reduction in phospho-sites occupancy at 4 uM after 5 hrs by SILAC based LC-MS/MS analysis relative to control; assay type: cell-based
[3] = molecular target: Serine/threonine-protein phosphatase 6 regulatory subunit 3 (Mus musculus) (UniProt Q922D4); test: Inhibition of Ppp6r3 in mouse C2C12 cells assessed as reduction in phospho-sites occupancy at 4 uM after 5 hrs by SILAC based LC-MS/MS analysis relative to control; assay type: cell-based
[4] = molecular target: Casein kinase 2 (Mus musculus) (UniProt Q60737+P67871+O54833+Q8CH19); test: Inhibition of CK2 in mouse C2C12 cells assessed as reduction in CK2 substrates phosphorylation at 1 to 4 uM by Western blot analysis; assay type: cell-based; conditions: dose 1-4 µM
[5] = molecular target: Nucleolar protein 56 (Mus musculus) (UniProt Q9D6Z1); test: Inhibition of Nop56 in mouse C2C12 cells assessed as reduction in phospho-sites occupancy at 4 uM after 5 hrs by SILAC based LC-MS/MS analysis relative to control; assay type: cell-based
Chain of Nucleolar protein 56 (Mus musculus) (Q9D6Z1 whole entry): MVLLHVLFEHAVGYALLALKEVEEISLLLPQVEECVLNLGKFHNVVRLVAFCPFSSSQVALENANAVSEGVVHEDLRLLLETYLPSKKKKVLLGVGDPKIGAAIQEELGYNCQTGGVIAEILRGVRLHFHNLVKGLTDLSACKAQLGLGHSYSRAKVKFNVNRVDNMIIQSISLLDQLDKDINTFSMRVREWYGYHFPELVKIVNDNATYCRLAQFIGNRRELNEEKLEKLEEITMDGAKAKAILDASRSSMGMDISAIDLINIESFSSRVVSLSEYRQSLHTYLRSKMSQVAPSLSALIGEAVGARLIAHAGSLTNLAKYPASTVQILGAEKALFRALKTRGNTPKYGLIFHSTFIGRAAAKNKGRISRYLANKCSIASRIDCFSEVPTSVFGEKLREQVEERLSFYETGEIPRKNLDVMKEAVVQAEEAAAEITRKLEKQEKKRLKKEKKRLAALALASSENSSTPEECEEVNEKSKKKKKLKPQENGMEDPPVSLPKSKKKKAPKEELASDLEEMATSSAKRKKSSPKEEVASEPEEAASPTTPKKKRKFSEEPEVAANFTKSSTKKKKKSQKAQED

[6] = molecular target: SWI/SNF-related matrix-associated actin-dependent regulator of chromatin subfamily A containing DEAD/H box 1 (Mus musculus) (UniProt Q04692); test: Inhibition of Smarcad1 in mouse C2C12 cells assessed as reduction in phospho-sites occupancy at 4 uM after 5 hrs by SILAC based LC-MS/MS analysis relative to control; assay type: cell-based
[7] = molecular target: Sequestosome-1 (Mus musculus) (UniProt Q64337); test: Inhibition of Sequestosome-1 in mouse C2C12 cells assessed as reduction in phospho-sites occupancy at 4 uM after 5 hrs by SILAC based LC-MS/MS analysis relative to control; assay type: cell-based
[8] = molecular target: Dual E2 ubiquitin-conjugating enzyme/E3 ubiquitin-protein ligase BIRC6 (Mus musculus) (UniProt O88738); test: Inhibition of Birc6 in mouse C2C12 cells assessed as reduction in phospho-sites occupancy at 4 uM after 5 hrs by SILAC based LC-MS/MS analysis relative to control; assay type: cell-based
[9] = molecular target: Striatin (Mus musculus) (UniProt O55106); test: Inhibition of Stria-tin in mouse C2C12 cells assessed as reduction in phospho-sites occupancy at 4 uM after 5 hrs by SILAC based LC-MS/MS analysis relative to control; assay type: cell-based
[10] = molecular target: Importin subunit alpha-4 (Mus musculus) (UniProt O35344); test: Inhibition of Kpna3 in mouse C2C12 cells assessed as reduction in phospho-sites occupancy at 4 uM after 5 hrs by SILAC based LC-MS/MS analysis relative to control; assay type: cell-based
Chain of Importin subunit alpha-4 (Mus musculus) (O35344 whole entry): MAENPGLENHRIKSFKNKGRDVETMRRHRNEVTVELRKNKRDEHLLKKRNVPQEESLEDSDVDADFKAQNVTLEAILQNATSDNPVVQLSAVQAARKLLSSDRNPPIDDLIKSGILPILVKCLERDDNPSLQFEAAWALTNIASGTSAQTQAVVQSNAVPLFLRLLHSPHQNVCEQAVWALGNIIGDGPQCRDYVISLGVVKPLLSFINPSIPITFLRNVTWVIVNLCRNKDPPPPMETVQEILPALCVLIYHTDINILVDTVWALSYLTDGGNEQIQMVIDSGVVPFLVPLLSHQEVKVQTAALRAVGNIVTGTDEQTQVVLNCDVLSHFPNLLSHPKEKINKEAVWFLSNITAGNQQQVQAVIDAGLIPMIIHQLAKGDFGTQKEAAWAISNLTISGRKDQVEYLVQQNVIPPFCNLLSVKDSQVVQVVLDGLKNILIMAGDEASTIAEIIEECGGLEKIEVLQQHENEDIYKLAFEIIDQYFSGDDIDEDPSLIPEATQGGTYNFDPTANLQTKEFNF

[11] = molecular target: Desmoyokin (Mus musculus) (UniProt Q61484); test: Inhibition of AHNAK in mouse C2C12 cells assessed as reduction in phospho-sites occupancy at 4 uM after 5 hrs by SILAC based LC-MS/MS analysis relative to control; assay type: cell-based
Chain of Desmoyokin (Mus musculus) (Q61484 as listed by the source): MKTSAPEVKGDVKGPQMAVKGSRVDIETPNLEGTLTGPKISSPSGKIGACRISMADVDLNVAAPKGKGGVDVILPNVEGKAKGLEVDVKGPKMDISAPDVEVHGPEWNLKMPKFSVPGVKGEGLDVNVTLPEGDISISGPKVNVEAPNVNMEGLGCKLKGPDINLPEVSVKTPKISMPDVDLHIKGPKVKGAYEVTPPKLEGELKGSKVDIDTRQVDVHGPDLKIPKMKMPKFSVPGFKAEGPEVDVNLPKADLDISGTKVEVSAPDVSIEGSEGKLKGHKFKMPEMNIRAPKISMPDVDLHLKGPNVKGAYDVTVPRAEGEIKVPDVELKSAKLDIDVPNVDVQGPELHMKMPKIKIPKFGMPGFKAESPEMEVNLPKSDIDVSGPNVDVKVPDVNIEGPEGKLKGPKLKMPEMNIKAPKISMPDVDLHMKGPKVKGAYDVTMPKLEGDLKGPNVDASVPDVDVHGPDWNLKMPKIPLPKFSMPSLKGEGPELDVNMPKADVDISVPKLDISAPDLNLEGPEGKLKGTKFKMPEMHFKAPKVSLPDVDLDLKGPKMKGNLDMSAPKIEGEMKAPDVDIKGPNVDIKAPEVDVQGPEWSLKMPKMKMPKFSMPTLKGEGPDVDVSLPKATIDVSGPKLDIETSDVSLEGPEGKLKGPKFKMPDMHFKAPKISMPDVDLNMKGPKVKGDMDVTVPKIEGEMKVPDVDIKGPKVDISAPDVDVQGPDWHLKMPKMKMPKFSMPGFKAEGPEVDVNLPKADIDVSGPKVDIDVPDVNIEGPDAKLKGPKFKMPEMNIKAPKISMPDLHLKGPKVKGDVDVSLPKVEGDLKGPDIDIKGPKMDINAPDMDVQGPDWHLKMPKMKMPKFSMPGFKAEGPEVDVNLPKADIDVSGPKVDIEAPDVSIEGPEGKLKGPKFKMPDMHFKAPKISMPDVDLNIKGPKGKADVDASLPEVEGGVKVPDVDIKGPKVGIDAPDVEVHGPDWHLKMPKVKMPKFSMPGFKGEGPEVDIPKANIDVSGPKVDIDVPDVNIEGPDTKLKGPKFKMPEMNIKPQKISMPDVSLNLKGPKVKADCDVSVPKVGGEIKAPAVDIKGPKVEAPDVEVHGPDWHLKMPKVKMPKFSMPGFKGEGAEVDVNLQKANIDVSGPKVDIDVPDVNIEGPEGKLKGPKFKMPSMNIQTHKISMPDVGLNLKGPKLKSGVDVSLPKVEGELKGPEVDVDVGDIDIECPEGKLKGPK

[12] = molecular target: WASH complex subunit 2 (Mus musculus) (UniProt Q6PGL7); test: Inhibition of Washc2 in mouse C2C12 cells assessed as reduction in phospho-sites occupancy at 4 uM after 5 hrs by SILAC based LC-MS/MS analysis relative to control; assay type: cell-based
Chain of WASH complex subunit 2 (Mus musculus) (Q6PGL7 whole entry, one chain of several): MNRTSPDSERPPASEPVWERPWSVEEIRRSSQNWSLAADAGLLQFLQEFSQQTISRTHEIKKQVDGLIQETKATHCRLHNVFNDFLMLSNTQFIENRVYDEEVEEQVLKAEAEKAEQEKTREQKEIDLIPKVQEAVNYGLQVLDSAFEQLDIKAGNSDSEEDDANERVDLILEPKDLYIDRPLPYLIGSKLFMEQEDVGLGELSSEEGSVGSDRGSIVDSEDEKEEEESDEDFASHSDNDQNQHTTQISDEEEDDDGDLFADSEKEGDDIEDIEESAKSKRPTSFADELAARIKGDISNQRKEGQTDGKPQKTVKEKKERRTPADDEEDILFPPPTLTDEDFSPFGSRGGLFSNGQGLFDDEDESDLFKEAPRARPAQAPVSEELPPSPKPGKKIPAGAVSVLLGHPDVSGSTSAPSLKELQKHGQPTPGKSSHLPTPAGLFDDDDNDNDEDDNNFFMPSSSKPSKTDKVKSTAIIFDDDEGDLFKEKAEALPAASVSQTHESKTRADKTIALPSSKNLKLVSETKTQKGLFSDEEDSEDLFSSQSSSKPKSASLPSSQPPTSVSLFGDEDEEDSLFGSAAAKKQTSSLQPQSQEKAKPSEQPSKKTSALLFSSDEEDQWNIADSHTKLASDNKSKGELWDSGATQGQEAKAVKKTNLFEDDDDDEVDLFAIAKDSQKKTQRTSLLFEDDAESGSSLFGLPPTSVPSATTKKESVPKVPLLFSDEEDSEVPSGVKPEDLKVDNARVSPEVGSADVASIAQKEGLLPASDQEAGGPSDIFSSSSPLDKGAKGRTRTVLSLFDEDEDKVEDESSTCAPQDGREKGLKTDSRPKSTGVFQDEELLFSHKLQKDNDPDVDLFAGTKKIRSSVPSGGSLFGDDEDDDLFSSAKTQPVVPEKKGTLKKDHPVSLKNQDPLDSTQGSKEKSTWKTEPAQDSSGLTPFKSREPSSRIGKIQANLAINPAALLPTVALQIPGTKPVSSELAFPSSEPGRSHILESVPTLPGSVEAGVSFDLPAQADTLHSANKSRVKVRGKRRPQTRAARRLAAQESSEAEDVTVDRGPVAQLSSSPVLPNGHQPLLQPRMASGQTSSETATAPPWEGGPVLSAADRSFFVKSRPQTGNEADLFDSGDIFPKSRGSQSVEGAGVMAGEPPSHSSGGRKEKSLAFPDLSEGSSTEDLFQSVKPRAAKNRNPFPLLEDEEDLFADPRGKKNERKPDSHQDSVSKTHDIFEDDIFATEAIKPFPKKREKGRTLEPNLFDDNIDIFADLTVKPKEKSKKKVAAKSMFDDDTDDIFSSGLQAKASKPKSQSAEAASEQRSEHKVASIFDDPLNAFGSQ

[13] = molecular target: E3 ubiquitin-protein ligase Praja-1 (Mus musculus) (UniProt O55176); test: Inhibition of Pja1 in mouse C2C12 cells assessed as reduction in phospho-sites occupancy at 4 uM after 5 hrs by SILAC based LC-MS/MS analysis relative to control; assay type: cell-based
Chain of E3 ubiquitin-protein ligase Praja-1 (Mus musculus) (O55176 whole entry): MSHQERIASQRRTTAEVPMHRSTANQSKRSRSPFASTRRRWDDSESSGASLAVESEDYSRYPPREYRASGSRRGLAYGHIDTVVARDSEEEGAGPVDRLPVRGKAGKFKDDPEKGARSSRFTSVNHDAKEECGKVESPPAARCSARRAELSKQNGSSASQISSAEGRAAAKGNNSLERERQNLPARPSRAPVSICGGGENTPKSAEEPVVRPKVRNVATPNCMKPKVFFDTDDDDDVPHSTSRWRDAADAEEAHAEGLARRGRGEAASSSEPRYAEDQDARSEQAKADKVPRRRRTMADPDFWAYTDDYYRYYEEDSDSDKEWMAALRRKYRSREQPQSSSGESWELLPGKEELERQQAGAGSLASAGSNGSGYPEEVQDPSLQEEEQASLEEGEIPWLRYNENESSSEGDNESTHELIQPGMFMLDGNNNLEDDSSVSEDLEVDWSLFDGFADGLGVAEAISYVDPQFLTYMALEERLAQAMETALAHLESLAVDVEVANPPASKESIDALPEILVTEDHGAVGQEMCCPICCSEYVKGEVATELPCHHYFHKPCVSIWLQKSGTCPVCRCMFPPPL

[14] = molecular target: Protein IMPACT (Mus musculus) (UniProt O55091); test: Inhibition of Impact in mouse C2C12 cells assessed as reduction in phospho-sites occupancy at 4 uM after 5 hrs by SILAC based LC-MS/MS analysis relative to control; assay type: cell-based
Chain of Protein IMPACT (Mus musculus) (O55091 whole entry, the tested form may be a part): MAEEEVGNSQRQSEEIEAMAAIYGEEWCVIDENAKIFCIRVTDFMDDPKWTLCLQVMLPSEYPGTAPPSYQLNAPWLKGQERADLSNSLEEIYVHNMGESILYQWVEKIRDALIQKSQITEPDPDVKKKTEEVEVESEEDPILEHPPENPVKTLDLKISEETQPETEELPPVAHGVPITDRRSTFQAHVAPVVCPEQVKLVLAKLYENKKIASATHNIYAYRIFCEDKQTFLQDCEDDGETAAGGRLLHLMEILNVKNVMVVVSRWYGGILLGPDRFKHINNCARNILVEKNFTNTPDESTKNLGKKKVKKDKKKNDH

[15] = molecular target: Zinc finger and BTB domain-containing protein 7A (Mus musculus) (UniProt O88939); test: Inhibition of Zbtb7a in mouse C2C12 cells assessed as reduction in phospho-sites occupancy at 4 uM after 5 hrs by SILAC based LC-MS/MS analysis relative to control; assay type: cell-based
[16] = molecular target: La-related protein 1 (Mus musculus) (UniProt Q6ZQ58); test: Inhibition of Larp1 in mouse C2C12 cells assessed as reduction in phospho-sites occupancy at 4 uM after 5 hrs by SILAC based LC-MS/MS analysis relative to control; assay type: cell-based
[17] = molecular target: Nucleoprotein TPR (Mus musculus) (UniProt F6ZDS4); test: Inhibition of nucleoprotein TPR in mouse C2C12 cells assessed as reduction in phospho-sites occupancy at 4 uM after 5 hrs by SILAC based LC-MS/MS analysis relative to control; assay type: cell-based
[18] = molecular target: UPF0690 protein C1orf52 homolog (Mus musculus) (UniProt Q9CWU4); test: Inhibition of UPF0690 protein C1orf52 homolog in mouse C2C12 cells assessed as reduction in phospho-sites occupancy at 4 uM after 5 hrs by SILAC based LC-MS/MS analysis relative to control; assay type: cell-based
Chain of UPF0690 protein C1orf52 homolog (Mus musculus) (Q9CWU4 whole entry): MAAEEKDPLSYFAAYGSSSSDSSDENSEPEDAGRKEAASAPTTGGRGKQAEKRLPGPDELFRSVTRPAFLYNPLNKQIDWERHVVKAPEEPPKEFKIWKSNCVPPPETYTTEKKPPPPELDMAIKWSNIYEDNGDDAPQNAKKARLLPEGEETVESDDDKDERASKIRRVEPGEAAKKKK

[19] = molecular target: Kinectin (Mus musculus) (UniProt Q61595); test: Inhibition of Ktn1 in mouse C2C12 cells assessed as reduction in phospho-sites occupancy at 4 uM after 5 hrs by SILAC based LC-MS/MS analysis relative to control; assay type: cell-based
[20] = molecular target: Autophagy-related protein 9A (Mus musculus) (UniProt Q68FE2); test: Inhibition of Atg9a in mouse C2C12 cells assessed as reduction in phospho-sites occupancy at 4 uM after 5 hrs by SILAC based LC-MS/MS analysis relative to control; assay type: cell-based
[21] = test system: Golgi-specific brefeldin A-resistance guanine nucleotide exchange factor 1 (Mus musculus); test: Inhibition of Gbf1 in mouse C2C12 cells assessed as reduction in phospho-sites occupancy at 4 uM after 5 hrs by SILAC based LC-MS/MS analysis relative to control
[22] = molecular target: Catenin alpha-1 (Mus musculus) (UniProt P26231); test: Inhibition of catenin alpha-1 in mouse C2C12 cells assessed as reduction in phospho-sites occupancy at 4 uM after 5 hrs by SILAC based LC-MS/MS analysis relative to control; assay type: cell-based
[23] = molecular target: Tight junction protein 2 (Mus musculus) (UniProt Q9Z0U1); test: Inhibition of Tjp2 in mouse C2C12 cells assessed as reduction in phospho-sites occupancy at 4 uM after 5 hrs by SILAC based LC-MS/MS analysis relative to control; assay type: cell-based
[24] = molecular target: Serine/threonine-protein kinase PAK 1 (Mus musculus) (UniProt O88643); test: Inhibition of Pak1 in mouse C2C12 cells assessed as reduction in phospho-sites occupancy at 4 uM after 5 hrs by SILAC based LC-MS/MS analysis relative to control; assay type: cell-based
[25] = molecular target: Survival motor neuron protein (Mus musculus) (UniProt P97801); test: Inhibition of survival motor neuron protein in mouse C2C12 cells assessed as reduction in phospho-sites occupancy at 4 uM after 5 hrs by SILAC based LC-MS/MS analysis relative to control; assay type: cell-based
Chain of Survival motor neuron protein (Mus musculus) (P97801 whole entry): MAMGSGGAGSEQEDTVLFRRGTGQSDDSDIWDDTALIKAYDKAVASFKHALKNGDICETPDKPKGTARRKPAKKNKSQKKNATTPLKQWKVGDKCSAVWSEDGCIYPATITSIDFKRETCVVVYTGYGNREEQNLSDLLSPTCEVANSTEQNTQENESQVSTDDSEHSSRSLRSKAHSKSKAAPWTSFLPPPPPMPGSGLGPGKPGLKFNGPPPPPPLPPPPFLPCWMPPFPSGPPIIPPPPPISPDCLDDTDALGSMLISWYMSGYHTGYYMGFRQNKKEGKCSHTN

COc1cc(/C=N/n2c(SC)nnc2-c2ccccc2)c(Br)cc1O
fold change (FC) [1]: 2.17 | fold change (FC) [2]: 1.86 | fold change (FC) [3]: 1.75 | inhibition [4]: Active | fold change (FC) [5]: 1.5 | fold change (FC) [6]: 1.64 | fold change (FC) [7]: 2.35 | fold change (FC) [8]: 1.62 | fold change (FC) [9]: 2.25 | fold change (FC) [10]: 3.44 | fold change (FC) [11]: 3.22 | fold change (FC) [12]: 4.17 | fold change (FC) [13]: 2.53 | fold change (FC) [14]: 3.44 | fold change (FC) [15]: 1.89 | fold change (FC) [16]: 3.25 | fold change (FC) [17]: 1.51 | fold change (FC) [18]: 1.61 | fold change (FC) [19]: 1.98 | fold change (FC) [20]: 1.8 | fold change (FC) [21]: 2.55 | fold change (FC) [22]: 1.59 | fold change (FC) [23]: 3.31 | fold change (FC) [24]: 1.96 | fold change (FC) [25]: 1.52
